Among the test systems are COLO 205; ACHN; SNB-19; U-251; MDA-MB-231; UACC-257; RXF 393; HOP-92; NCI-H522; EKVX; RPMI-8226; HL-60; T47D; HT-29; UO-31; NCI-H226; K562; MDA-MB-435; CCRF-CEM; TK-10.
Test in all cases: growth of human tumour cells (NCI), 48 h

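Cultured in 96-well plates, cells were exposed to test compound for 48 hours across five concentrations. GI50 marks 50% less growth.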 Active and inactive are the calls of the source. Cut-off read from the data, not from the text of the source: active = GI50 up to about 1.1 µM and inactive = higher. A value given as a limit tells only on which side of the number the result lay.

`COc1ccc(Cc2coc3ccccc3c2=O)cc1OC`: the GI50 with COLO 205 was > 100 µM (inactive); in the test on ACHN it was 72.4 µM (inactive); with SNB-19, > 100 µM (inactive); in the test with U-251 it was 72.1 µM (inactive); in the test on MDA-MB-231, 99.1 µM (inactive); in the test with UACC-257, 59.2 µM (inactive). For the same compound, the GI50 in the test on RXF 393 is 52.4 µM (inactive); in the test on HOP-92 it was > 100 µM (inactive); with NCI-H522 it was 43.5 µM (inactive); with EKVX it was 40.6 µM (inactive); in the test with RPMI-8226 it was 33.3 µM (inactive); with HL-60, 86.5 µM (inactive). In addition, the GI50 in the test with T47D was 33.2 µM (inactive); in the test with HT-29 it was > 100 µM (inactive); with UO-31, 38.5 µM (inactive); in the test with NCI-H226, 94 µM (inactive); with K562 it was 72.6 µM (inactive); in the test on MDA-MB-435, 79.4 µM (inactive). Besides, the GI50 with CCRF-CEM and in the test with TK-10 was > 100 µM (inactive) throughout.

For `COC(=O)c1c(C)ccc2c(O)c3c(cc12)C(=O)c1c2c(cc(O)c1C3=O)C1(C)OC(C)(O2)C(O)C(N(C)C)C1O` (stereo not given), the GI50 in the test with COLO 205 is 1.82 µM (inactive); in the test on ACHN, 1.23 µM (inactive); in the test on SNB-19, 1.35 µM (inactive); in the test with U-251, 0.667 µM (active); in the test with MDA-MB-231, 1.38 µM (inactive); with UACC-257, 1.65 µM (inactive). Besides, the GI50 with RXF 393 is 1.22 µM (inactive); with HOP-92, 1.82 µM (inactive); with NCI-H522, 1.22 µM (inactive); in the test on EKVX it was 2.37 µM (inactive); with RPMI-8226, 0.946 µM (active); with HL-60 it was 3.98 µM (inactive). The GI50 is 2.76 µM (inactive) in the test with T47D; 0.577 µM (active) with HT-29; 1.87 µM (inactive) in the test on UO-31; 2.26 µM (inactive) in the test with NCI-H226; 0.942 µM (active) in the test on K562; 1.62 µM (inactive) in the test with MDA-MB-435. Further, the results for the GI50 in the test on CCRF-CEM and in the test on TK-10 were 0.283 µM (active) and 1.4 µM (inactive), respectively.

Regarding `CC1(C)CC(=O)C2=C(C1)N(c1ccccc1)C1(O)C=CC(O)=C3C(=O)c4ccccc4C(=O)C321` (stereo not given), the GI50 was 33.6 µM (inactive) in the test on COLO 205; 21.1 µM (inactive) with ACHN; 21.7 µM (inactive) with SNB-19; 32.9 µM (inactive) in the test on U-251; 34.4 µM (inactive) with MDA-MB-231; 33.8 µM (inactive) in the test with UACC-257. For the same compound, the GI50 in the test on RXF 393 was 19.8 µM (inactive); with HOP-92 it was 24.1 µM (inactive); with NCI-H522, 20.3 µM (inactive); with EKVX, 55.6 µM (inactive); with RPMI-8226 it was 22.3 µM (inactive); in the test on HL-60, 37.2 µM (inactive). The GI50 is 45.3 µM (inactive) with T47D; 21.2 µM (inactive) in the test on HT-29; 19.1 µM (inactive) with UO-31; 18.7 µM (inactive) in the test on NCI-H226; 14 µM (inactive) in the test on K562; 20.7 µM (inactive) with MDA-MB-435. Also, the GI50 in the test with CCRF-CEM was 4.06 µM (inactive); in the test on TK-10, 24.4 µM (inactive).

`CN(NC(=O)/C(=C/c1ccc(O)cc1)NC(=O)c1ccccc1)c1ccnc2cc(Cl)ccc12`: the GI50 with COLO 205 is 17.5 µM (inactive); in the test on ACHN, 18.3 µM (inactive); in the test on SNB-19, 17.2 µM (inactive); in the test with U-251, 14.8 µM (inactive); with MDA-MB-231 it was 20.7 µM (inactive); with UACC-257, 17.8 µM (inactive). Also, the GI50 is 14.6 µM (inactive) with RXF 393; 17.3 µM (inactive) in the test with HOP-92; 21 µM (inactive) in the test with NCI-H522; 18.2 µM (inactive) in the test with EKVX; 13.4 µM (inactive) with RPMI-8226; 2.79 µM (inactive) in the test on HL-60. The GI50 in the test with T47D was 20.5 µM (inactive); in the test with HT-29, 6.4 µM (inactive); with UO-31, 5.85 µM (inactive); in the test on NCI-H226, 12.7 µM (inactive); in the test on K562, 6.35 µM (inactive); in the test with MDA-MB-435, 17.3 µM (inactive). In addition, the GI50 is 17.3 µM (inactive) in the test on CCRF-CEM and 15.5 µM (inactive) in the test with TK-10.

Take `C=C1CC(c2ccc(OCCCN3C(=O)c4ccccc4C3=O)cc2)OC1=O` (stereo not given): the GI50 in the test with COLO 205 was 1.91 µM (inactive); in the test on ACHN, 4.19 µM (inactive); in the test with SNB-19, 7.38 µM (inactive); in the test on U-251, 4 µM (inactive); in the test on MDA-MB-231, 3.95 µM (inactive); in the test with UACC-257, 2.19 µM (inactive). Besides, the GI50 in the test on RXF 393 was 1.99 µM (inactive); in the test with HOP-92 it was 1.36 µM (inactive); in the test on NCI-H522 it was 0.653 µM (active); with EKVX, 3.9 µM (inactive); in the test on RPMI-8226, 1.12 µM (inactive); with HL-60, 1.96 µM (inactive). Moreover, the GI50 with T47D is 2.92 µM (inactive); in the test with HT-29, 2.53 µM (inactive); with UO-31 it was 3.74 µM (inactive); in the test on NCI-H226, 1.46 µM (inactive); in the test on K562, 1.52 µM (inactive); with MDA-MB-435, 2.52 µM (inactive). Further, the GI50 with CCRF-CEM was 1.64 µM (inactive); in the test on TK-10, 4.94 µM (inactive).

`Cc1cc(N)ccc1/N=N\c1ccc(S(=O)(=O)CCOS(=O)(=O)O)cc1`: the GI50 is 2.07 µM (inactive) in the test on COLO 205; 3.24 µM (inactive) in the test on ACHN; 4.72 µM (inactive) with SNB-19; 3.05 µM (inactive) in the test with U-251; 0.215 µM (active) in the test with MDA-MB-231; 11.1 µM (inactive) in the test with UACC-257. In addition, the GI50 is 10.8 µM (inactive) with RXF 393; 5.02 µM (inactive) in the test on HOP-92; 0.274 µM (active) in the test on NCI-H522; 27 µM (inactive) in the test on EKVX; 1 µM (active) in the test with RPMI-8226; 0.948 µM (active) in the test with HL-60. Moreover, the GI50 is 12.2 µM (inactive) with T47D; 0.767 µM (active) in the test on HT-29; 2 µM (inactive) with UO-31; 3.37 µM (inactive) in the test on NCI-H226; 0.352 µM (active) in the test on K562; 0.216 µM (active) in the test on MDA-MB-435. In addition, the figures for the GI50 with CCRF-CEM and with TK-10 were 0.382 µM (active) and 14 µM (inactive), respectively.

(Values after ChEMBL document CHEMBL1201862, “PubChem BioAssay data set” (2004).)
